# Assay results taken from PMC8041284, “Tunable Methacrylamides for Covalent Ligand Directed Release Chemistry” (Journal of the American Chemical Society, 2021).
# *1 amine or outer side, *2 acyl side, *3 side chain or, on linkers, in order; H or OH if unused. Where a SMILES comes first, the peptide text is derived from it. Bridges are numbered along the chain shown (N, C = ends). [ ]: non-standard residue; d: D form. The star is where a group is joined. pTerphenylCO(4''-OnC5H11) = CCCCCOc1ccc(-c2ccc(-c3ccc(C(=O)*)cc3)cc2)cc1; Orn(4R-OH,5R-OH) = O=C([C@H](C[C@@H](O)[C@@H](O)N[*:3])N[*:1])[*:2]; hTyr(3S-OH,4S-OH) = N[C@H](C(=O)O)[C@H](O)[C@@H](O)c1ccc(O)cc1; Pro(3S-OH,4S-Me) = C[C@H]1CN[C@H](C(=O)O)[C@H]1O; Hyp = O=C(O)[C@@H]1C[C@@H](O)CN1
# Target: BTK (Homo sapiens, UniProt Q06187)
# Sequence (Q06187 402-655 limits assumed): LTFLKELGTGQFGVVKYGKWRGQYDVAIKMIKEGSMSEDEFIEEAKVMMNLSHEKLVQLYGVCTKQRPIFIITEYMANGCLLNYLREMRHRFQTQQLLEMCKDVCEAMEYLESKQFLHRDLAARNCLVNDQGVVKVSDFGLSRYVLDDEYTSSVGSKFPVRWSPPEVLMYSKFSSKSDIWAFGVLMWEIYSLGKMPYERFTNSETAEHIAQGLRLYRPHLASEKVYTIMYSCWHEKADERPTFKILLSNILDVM
# Experiment: biochemical
# Details: read-out: BTK inhibition (%)
row,SMILES,inhibition at 10 µM [%]
1,Cc1cc(N2CCN([C@@H]3CN[C@H](C(=O)N4CCSC4)C3)CC2)n(-c2ccccc2)n1 [PCM-0214840],0.8
2,Cn1c(COP(=O)(NCCBr)NCCBr)cnc1[N+](=O)[O-] [PCM-0214844],-4.7

# Same assay, conditions: read-out: BTK inhibition (%), 0.75 uM BTK, […] probe 3l, 15 min preincubation
row,SMILES,inhibition at 10 µM [%]
1,CCOC(=O)C1=C(N)Oc2ccc(Br)cc2C1C(C#N)C(=O)OCC (stereo not shown) [PCM-0214778],15.6
2,O=c1c(-c2ccc(O)cc2)coc2cc(O[C@@H]3O[C@H](CO)[C@@H](O)[C@H](O)[C@H]3O)ccc12 [PCM-0214779],10.9
3,O=c1ncn2nc(Sc3ccc(F)cc3F)ccc2c1-c1c(Cl)cccc1Cl [PCM-0214781],40
4,CC(C)OC(=O)[C@H](C)N[P@](=O)(OC[C@H]1O[C@@H](n2ccc(=O)[nH]c2=O)[C@](C)(F)[C@@H]1O)Oc1ccccc1 [PCM-0214785],13.2
5,N#C/C(=C1/SC[C@@H](c2ccc(Cl)cc2Cl)S1)n1ccnc1 [PCM-0214788],3.9
6,CCC[C@H](NC(=O)[C@@H]1[C@H]2CCC[C@H]2CN1C(=O)[C@@H](NC(=O)[C@@H](NC(=O)c1cnccn1)C1CCCCC1)C(C)(C)C)C(=O)C(=O)NC1CC1 [PCM-0214791],-3.1
7,CCC1=C[C@@H]2CN(C1)Cc1c([nH]c3ccccc13)[C@@](C(=O)OC)(c1cc3c(cc1OC)N(C)[C@H]1[C@@](O)(C(=O)OC)[C@H](OC(C)=O)[C@]4(CC)C=CCN5CC[C@]31[C@@H]54)C2 [PCM-0214792],14
8,CC[C@]1(O)C[C@H]2CN(CCc3c([nH]c4ccccc34)[C@@](C(=O)OC)(c3cc4c(cc3OC)N(C=O)[C@H]3[C@@](O)(C(=O)OC)[C@H](OC(C)=O)[C@]5(CC)C=CCN6CC[C@]43[C@@H]65)C2)C1 [PCM-0214794],9
9,COc1cc(F)c(F)c(Nc2ccc(I)cc2F)c1NS(=O)(=O)C1(C[C@H](O)CO)CC1 [PCM-0214795],36.6
10,CCN(CC)CCOC(=O)c1ccc(N)cc1Cl [PCM-0214797],-1.6
11,"CCCCCOc1ccc(-c2ccc(-c3ccc(C(=O)N[C@H]4C[C@@H](O)[C@@H](O)NC(=O)[C@@H]5[C@@H](O)[C@@H](C)CN5C(=O)[C@H]([C@@H](C)O)NC(=O)[C@H]([C@H](O)[C@@H](O)c5ccc(O)cc5)NC(=O)[C@@H]5C[C@@H](O)CN5C(=O)[C@H]([C@@H](C)O)NC4=O)cc3)cc2)cc1 [PCM-0214798] ({pTerphenylCO(4''-OnC5H11)}-[Orn(4R-OH,5R-OH)]T[Hyp][hTyr(3S-OH,4S-OH)]T[Pro(3S-OH,4S-Me)]; lactam 1-C)",122
12,O[C@@H](c1cc(C(F)(F)F)nc2c(C(F)(F)F)cccc12)[C@H]1CCCCN1 [PCM-0214801],-4.7
13,C=CC[C@@H]1/C=C(\C)C[C@H](C)C[C@H](OC)[C@H]2O[C@@](O)(C(=O)C(=O)N3CCCC[C@H]3C(=O)O[C@H](/C(C)=C/[C@@H]3CC[C@@H](O)[C@H](OC)C3)[C@H](C)[C@@H](O)CC1=O)[C@H](C)C[C@@H]2OC [PCM-0214806],-2.8
14,NCc1c[nH]c(=S)n1[C@@H]1CCc2c(F)cc(F)cc2C1 [PCM-0214808],4.7
15,CCCCN1CCCC[C@H]1C(=O)Nc1c(C)cccc1C [PCM-0214809],-25.7
16,OC[C@H]1O[C@@H](O[C@@H]2[C@@H](CO)O[C@](O)(CO)[C@H]2O)[C@H](O)[C@@H](O)[C@H]1O [PCM-0214810],13.2
17,N[C@@H](CC(=O)N1CCn2c(nnc2C(F)(F)F)C1)Cc1cc(F)c(F)cc1F [PCM-0214812],-1.6
18,CC(C)(CO)[C@@H](O)C(=O)NCCC(=O)O [PCM-0214814],7
19,CC1(C)[C@@H]2CC[C@@]1(C)C(=O)C2 [PCM-0214819],1.6
20,CC12CCC(CC1=O)C2(C)C (stereo not shown) [PCM-0214819],-3.9
21,CC(=O)OCC1=C(C(=O)O)N2C(=O)[C@@H](NC(=O)Cc3cccs3)[C@H]2SC1 [PCM-0214820],-12.5

row,SMILES,inhibition at 10 µM [%]
1,CN1CCC(=C2c3ccccc3CCn3c(C=O)cnc32)CC1 [PCM-0214821],2.1
2,O=c1ccc2ccc(OCCCCN3CCN(c4cccc5sccc45)CC3)cc2[nH]1 [PCM-0214822],0.8
3,C#C[C@]1(O)CC[C@H]2[C@@H]3CCC4=CCCC[C@@H]4[C@H]3C(=C)C[C@@]21CC [PCM-0214824],27.2
4,CO/N=C(\C(=O)N[C@@H]1C(=O)N2C(C(=O)O)=C(CSc3nnnn3C)CS[C@H]12)c1csc(N)n1 [PCM-0214827],8.6
5,CCCCCC(=O)O[C@]1(C(C)=O)CC[C@H]2[C@@H]3CCC4=CC(=O)CC[C@]4(C)[C@H]3CC[C@@]21C [PCM-0214832],-23.3
6,Cc1ccsc1C(=CCCN1CCC[C@@H](C(=O)O)C1)c1sccc1C [PCM-0214833],-7
7,CC(C)C(=O)OCC(=O)[C@@]12O[C@H](C3CCCCC3)O[C@@H]1C[C@H]1[C@@H]3CCC4=CC(=O)C=C[C@]4(C)[C@H]3[C@@H](O)C[C@@]12C [PCM-0214834],-6.9
8,NC(=O)[C@@H]1CCCN1C(=O)[C@H](Cc1cnc[nH]1)NC(=O)[C@@H]1CCC(=O)N1 [PCM-0214836],-5.4
9,CC(=O)O[C@H]1C[C@@]2(C)[C@@H](C[C@@H](O)[C@H]3[C@@]4(C)CC[C@@H](O)[C@@H](C)[C@@H]4CC[C@@]32C)/C1=C(\CCC=C(C)C)C(=O)O [PCM-0214838],6.2
10,C[C@H](CCC(=O)O)[C@H]1CC[C@H]2[C@@H]3CC[C@@H]4C[C@H](O)CC[C@]4(C)[C@H]3C[C@H](O)[C@]12C [PCM-0214839],11.7
11,C#C[C@]1(O)CC[C@H]2[C@@H]3CCC4=CC(=O)CC[C@@H]4[C@H]3C(=C)C[C@@]21CC [PCM-0214842],3.1
12,C/C=C(\C)C(=O)O[C@H]1[C@H](OC(C)=O)[C@@]2(CO)C(CC1(C)C)C1=CCC3[C@@]4(C)CCC(O[C@@H]5O[C@H](C(=O)O)[C@@H](O[C@@H]6O[C@H](CO)[C@@H](O)[C@H](O)[C@H]6O)[C@H](O)[C@H]5O[C@@H]5O[C@H](CO)[C@@H](O)[C@H](O)[C@H]5O)[C@](C)(CO)C4CC[C@@]3(C)[C@]1(C)C[C@H]2O (stereo partly shown) [PCM-0214843],3.4
13,O=C1Nc2ccccc2C1=O [PCM-0214846],11.7
14,CCCCCCCCCCCC(=O)O [PCM-0214847],-69.3
15,O=CC[C@@H](O)[C@H](O)[C@H](O)CO [PCM-0214849],5.4
16,O=C(/C=C/c1ccc(O)c2c1[C@H](C(=O)O[C@H](Cc1ccc(O)c(O)c1)C(=O)O)[C@@H](c1ccc(O)c(O)c1)O2)O[C@H](Cc1ccc(O)c(O)c1)C(=O)O [PCM-0214854],-34.2
17,CC(C)=CCC[C@](C)(O)[C@H]1CC[C@]2(C)[C@@H]1[C@H](O)C[C@@H]1[C@@]3(C)CC[C@H](O)C(C)(C)[C@@H]3CC[C@]12C [PCM-0214857],21
18,O=c1c(-c2ccc(O)cc2)coc2cc(O[C@@H]3O[C@H](CO)[C@@H](O)[C@H](O)[C@H]3O)cc(O)c12 [PCM-0214858],-9.3
19,C=C1C[C@@]23CC[C@H]4[C@@](C)(CCC[C@@]4(C)C(=O)O[C@@H]4O[C@H](CO)[C@@H](O)[C@H](O)[C@H]4O)[C@@H]2CC[C@]1(O[C@@H]1O[C@H](CO)[C@@H](O)[C@H](O[C@@H]2O[C@H](CO)[C@@H](O)[C@H](O)[C@H]2O)[C@H]1O[C@@H]1O[C@@H](C)[C@H](O)[C@@H](O)[C@H]1O)C3 [PCM-0214859],-14.8
20,C[C@H](CC(=O)C[C@@H](C)[C@H]1C[C@H](O)[C@@]2(C)C3=C(C(=O)C[C@]12C)[C@@]1(C)CCC(=O)C(C)(C)[C@@H]1C[C@@H]3O)C(=O)O [PCM-0214862],-6.2

# More lines, now with the values ahead:
row,inhibition at 10 µM [%],SMILES
1,8.6,Cc1c(Cc2ccc3ccccc3n2)c2cc(F)ccc2n1CC(=O)O [PCM-0214780]
2,-12.5,C[C@H](Cc1cc2c(c(C(N)=O)c1)N(CCCO)CC2)NCCOc1ccccc1OCC(F)(F)F [PCM-0214784]
3,-2.3,Cc1cc(C)cc(NC(=O)Cc2ccc(OC(C)(C)C(=O)O)cc2)c1 [PCM-0214786]
4,-6.2,CC(C)(Oc1ccc(Cl)cc1)C(=O)OCCOC(=O)c1cccnc1 [PCM-0214787]
5,-8.6,CC(CNC(=O)c1cccnc1)NC(=O)c1cccnc1 (stereo not shown) [PCM-0214789]
6,-18.7,CC1(C)CCC(C)(C)c2cc(NC(=O)c3ccc(C(=O)O)cc3)ccc21 [PCM-0214790]
7,7,CN(C)CCCCC(=O)Nc1ccc(NC(=S)NC(=O)c2ccc(C(C)(C)C)cc2)cc1 [PCM-0214793]
8,73.9,OCCOc1ccc(/C(=C(/CCCl)c2ccccc2)c2ccccc2)cc1 [PCM-0214796]
9,14.8,CCCN(CCc1cccs1)[C@H]1CCc2c(O)cccc2C1 [PCM-0214799]
10,9.7,Cc1ccc(Cl)c(Nc2ccccc2C(=O)O)c1Cl [PCM-0214800]
11,-17.9,O=C(O)CCCN1CCC(O[C@@H](c2ccc(Cl)cc2)c2ccccn2)CC1 [PCM-0214802]
12,10.1,C[C@@H](O[C@H]1OCCN(Cc2nn(P(=O)(O)O)c(=O)[nH]2)[C@H]1c1ccc(F)cc1)c1cc(C(F)(F)F)cc(C(F)(F)F)c1 [PCM-0214804]
13,1.6,CC(=O)NC(CC(C)C)C(=O)O (stereo not shown) [PCM-0214817]
14,-21.8,O=C(O)CSc1nnc(Br)n1-c1ccc(C2CC2)c2ccccc12 [PCM-0214823]
15,-1.6,COc1cc(O)c(C(=O)c2ccccc2)cc1S(=O)(=O)O [PCM-0214826]
16,13.2,Cn1nnc(-c2ccc(-c3ccc(N4C[C@H](COP(=O)(O)O)OC4=O)cc3F)cn2)n1 [PCM-0214830]
17,-10.1,COCCCOc1ccnc(C[S+]([O-])c2nc3ccccc3[nH]2)c1C (stereo not shown) [PCM-0214837]
18,-9.3,CN[C@@H](C)C(=O)N[C@H]1CN(C(=O)CC(C)C)CC[C@H]2CC[C@@H](C(=O)NC(c3ccccc3)c3ccccc3)N2C1=O [PCM-0214841]
19,7,CCOC(=O)[C@H](CCc1ccccc1)N[C@@H](C)C(=O)N1C(=O)N(C)C[C@H]1C(=O)O [PCM-0214860]
20,-13.2,N[C@@H](C(=O)N[C@@H]1C(=O)N2C(C(=O)O)=C(Cl)CS[C@H]12)c1ccccc1 [PCM-0214861]
21,36.6,Cc1ccc(NC(=O)c2ccc(CN3CC[C@H](N(C)C)C3)c(C(F)(F)F)c2)cc1Nc1nccc(-c2cncnc2)n1 [PCM-0214863]
